{
  "source": "patent US4801616A",
  "about": "“Diphenylmethanone compounds and anti-inflammatory use thereof” (Eli Lilly and Company, priority 1986, dated 1989)",
  "key": {"[1]": {"target": "T1, fatty acid cyclooxygenase (Homo sapiens, UniProt P23219)", "T1 construct": "The solubilized fatty acid cyclooxygenase was applied to a 440 ml electrofocusing column; from tissue; host or cells: human platelets: microsomes solubilized with Triton X-100, purified by electrofocusing and G-200 Sephadex", "T1 sequence (P23219 24-599)": "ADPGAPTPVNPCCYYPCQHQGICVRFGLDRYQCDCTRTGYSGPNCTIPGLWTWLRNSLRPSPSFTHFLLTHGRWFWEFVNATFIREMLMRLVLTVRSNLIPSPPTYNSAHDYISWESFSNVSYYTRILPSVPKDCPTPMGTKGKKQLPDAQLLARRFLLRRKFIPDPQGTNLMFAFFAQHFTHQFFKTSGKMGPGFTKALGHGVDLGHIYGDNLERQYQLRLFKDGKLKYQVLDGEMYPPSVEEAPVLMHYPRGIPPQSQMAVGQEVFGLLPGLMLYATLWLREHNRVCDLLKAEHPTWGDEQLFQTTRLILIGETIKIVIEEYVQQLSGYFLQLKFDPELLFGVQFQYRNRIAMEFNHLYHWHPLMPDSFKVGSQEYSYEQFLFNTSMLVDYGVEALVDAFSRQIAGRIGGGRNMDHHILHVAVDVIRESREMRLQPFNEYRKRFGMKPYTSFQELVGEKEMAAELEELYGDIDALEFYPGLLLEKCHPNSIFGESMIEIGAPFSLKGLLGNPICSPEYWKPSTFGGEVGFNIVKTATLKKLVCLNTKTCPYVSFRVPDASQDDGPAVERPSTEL", "experiment": "Fatty Acid Cyclooxygenase (FCO) Assay, inhibition of PGE2 formation by purified human platelet enzyme", "type": "biochemical", "conditions": "percent inhibition at 30 μg/ml", "description": "Fatty Acid Cyclooxygenase (FCO) Assay\nMicrosomes were prepared from 185 bags of human platelets (each bag containing the platelets from one pint of blood prepared using differential centrifugation procedures). The platelets from approximately 60 bags were prepared at one time. Platelet-rich plasma (500 g) was centrifuged at 10,000×g for 20 minutes, and the platelet pellet was suspended in 100 ml of 0.1M potassium phosphate buffer, pH 8.0, with a Teflon glass homogenizer and sonicated for 5.0 minutes with a Bronson Sonifier (Model 350) in a rosette flask cooled in ice water. Disrupted platelets were centrifuged 15 minutes at 10,000× g. The supernatant was centrifuged at 100,000× g for 90 minutes and the microsomal pellets were homogenized in 25 ml of 20% sucrose containing 1.0% Triton X-100 detergent. After 30 minutes at 4° C., the solubilized microsomes were centrifuged at 100,000× g for 60 minutes. The yellow supernatant was removed and stored at -70 ° C.\nThe solubilized fatty acid cyclooxygenase was applied to a 440 ml electrofocusing column (LKB-8012) containing 1% phisolytes (Brinkman Instruments, Westburgh, NY), pH 2-11, with the cathode at the top of the column. The enzyme was layered onto the column at the appropriate time so that its sucrose concentration was equal to that of the column gradient. This was accomplished by checking the gradient concentration periodically with a sucrose hand refractometer. Electrofocusing was carried out for 16 hours with an initial voltage of 400 V and a final voltage of 900-1,000 volts. Fractions were collected (20 ml) and assayed for PGE2 formation. Active peak fractions were pooled and concentrated by ultrafiltration (XM 100A) to a volume of 3-5 ml.\nActive fractions from electrofocusing were applied to a G-200 Sephadex column (2 cm×46 cm) and eluted with 10 mM potassium phosphate buffer, pH 7.0, in 5 ml fractions. After assay, active fractions were poored and concentrated to 1.0 ml by ultrafiltration (XM 100A), and kept frozen at -70° C.\nEnzyme activity was determined by assaying for PGE2 formation by preincubating the enzyme with 10 mmol/l imidazole phosphate buffer, pH 8.0, 2 mmol/l epinephrine, 2 mmol/l methemoglobin, and the test compound (30 μg/ml) in a total volume of 0.2 ml for one minute at 37° C. After preincubation, 5 mmol/l ^14 C-arachidonic acid were added and the mixture was incubated an additional 0.5 minutes at 37° C. The enzyme reaction was stopped by the addition of 2 μl of indomethacin (2 mg/ml) in alcohol.\nThe reaction mixture was spotted (50 μl) on a silica gel (LQ6D) plate and subjected to TLC. The solvent system consisted of chloroform-methanol-glacial acetic acid (90:5:5, v/v/v) and the relative mobilities were PGF2α =0.235, and PGE2 =0.47. The silica gel on the plate was scraped in 1 cm sections, suspended in 5 ml of the scintillation fluid [5.88 g of 2,5-diphenyloxazole and 118 mg of 1,4 -bis(5-phenyloxazol-2-yl)benzene] dissolved in 650 ml of toluene and 350 ml of Triton X-100) and the radioactivity was determined in an Isocap/300 liquid scintillation counter (Searle Analytic, Inc., Southfield, Mich.). Another 50 μl of the mixture was added to 10 ml of the Triton X-100 based scintillation fluid, and the radioactivity was determined so that the amount of radioactivity recovery from the TLC plate could be ascertained. PGE2 formation for each test compound was determined as a percent of control experiments wherein no test compound was added. Data is expressed in Table I either as the percent inhibition of formation of PGE2 at a test compound concentration of 30 μ g/ml, or as an IC50 for inhibition of PGE2 formation."}, "[2]": {"target": "T2, 5-lipoxygenase (Cavia porcellus, UniProt A0A286X958)", "T2 construct": "incubating 0.2 ml of the supernatant obtained from the PMNL sonicate with the test compound; from tissue; host or cells: casein-elicited guinea pig peritoneal polymorphonuclear leukocytes (PMNL, more than 95 percent of the cells), sonicated, 30,000 x g supernatant", "T2 sequence (A0A286X958 1-674)": "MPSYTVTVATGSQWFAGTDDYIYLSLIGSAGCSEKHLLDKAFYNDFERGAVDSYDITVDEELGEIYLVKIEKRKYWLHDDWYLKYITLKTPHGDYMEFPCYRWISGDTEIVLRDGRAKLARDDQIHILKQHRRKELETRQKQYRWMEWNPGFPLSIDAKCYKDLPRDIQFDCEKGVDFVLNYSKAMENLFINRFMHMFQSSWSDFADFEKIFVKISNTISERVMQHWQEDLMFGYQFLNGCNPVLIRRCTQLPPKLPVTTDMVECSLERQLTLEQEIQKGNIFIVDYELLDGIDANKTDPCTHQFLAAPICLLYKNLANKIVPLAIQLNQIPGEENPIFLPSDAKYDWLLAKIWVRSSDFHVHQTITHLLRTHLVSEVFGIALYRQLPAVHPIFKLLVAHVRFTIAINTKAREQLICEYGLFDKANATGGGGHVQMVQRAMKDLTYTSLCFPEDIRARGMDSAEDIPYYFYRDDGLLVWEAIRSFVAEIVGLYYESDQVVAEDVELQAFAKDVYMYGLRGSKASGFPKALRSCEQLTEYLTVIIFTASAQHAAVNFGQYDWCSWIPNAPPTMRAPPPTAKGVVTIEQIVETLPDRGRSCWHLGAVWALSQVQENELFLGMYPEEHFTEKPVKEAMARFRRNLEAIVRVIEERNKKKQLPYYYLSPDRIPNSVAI", "experiment": "5-Lipoxygenase (5-LPO) Assay, inhibition of 5-HETE formation in PMNL sonicate supernatant", "type": "biochemical, guinea pig", "conditions": "guinea pig PMNL sonicate supernatant, 37° C., 5 μM 14C-arachidonic acid", "description": "5-Lipoxygenase (5-LPO) Assay\nTen milliliters of a 2% casein solution were injected intraperitoneally into guinea pigs weighing 250-300 gm. After 16-18 hours, the guinea pigs were killed by suffocation in a carbon dioxide chamber. The peritoneal cavity was infused with 70 ml of saline and 40-50 ml of the fluid were recovered from the cavity. After centrifugation, cell pellets were washed twice in Hank's balanced salt solution (HBSS) without calcium ion.\nThe cells were then suspended in 5 ml of sodium phosphate buffer, pH 7.1 containing 1 mM EDTA, and 0.1% gelatin. About 20-30×10^7 cells were obtained from one guinea pig.\nThe PMNL suspension was disrupted by five 1/2 second pulse sonications at the setting of 3 in a Branson Sonifier, Model 350, equipped with a microtip. The sonicates were combined and centrifuged at 30,000× g for 10 minutes. The supernatant was kept frozen at -70° C. until use.\nEnzyme activity was determined by assaying for 5-HETE formation by first incubating 0.2 ml of the supernatant obtained from the PMNL sonicate with the test compound, 1 mM CaCl2, 2 mM ATP, and 1 mM GSH for 5 minutes at 37° C. The mixture is treated with 5 μM ^14 C-arachidonicacid and incubated at 37° C. an additional 10 minutes. The enzyme reaction was then stopped by the addition of 10 μl of 1M citric acid and 10μl of an alcohol solution containing 20 mg/ml each of indomethacin and butylated hydroxyanisole (BHA). The reaction mixture was spotted (50 μl on a silica gel plate (Baker TLC plate S1250-PA-19C) and subjected to TLC in a solvent system of ethyl acetate/2,2,4-trimethylpentane/glacial acetic acid/water (90:50:20:100).\nThe radioactivity of the arachidonic acid and its metabolites (5-HETE and LTB4) was visualized from a developed x-ray film which had been exposed to the TLC plate 1-2 days. The amount of 5-HETE formed was quantitated by scraping the silica gel area corresponding to the spot on the x-ray film, and the radioactivity determined in a Isocap/300 liquid scintillation counter (Searle Analytic, Inc.).\nThe percent inhibition of the formation of 5-HETE was determined for each concentration of test compound tested as compared to a control experiment wherein no test compound was added. The concentration and percent inhibition values were plotted on semi log paper and the concentration in which formation of 5-HETE is inhibited by 50% (IC50) was determined by interpolation."}},
  "note": "pIC50: −log10 of the molar value.",
  "data": [
    {"smiles": "CCCc1c(OCCCCC(=O)N(CC)CC)ccc(C(=O)c2ccccc2OC)c1OC", "note": "[Example 31, N,N-Diethyl-5-[3-methoxy-4-(2-methoxybenzoyl)-2-propylphenoxy]pentanamide]", "values": [
      {"measurement": "inhibition at 30 µg/mL", "setting": "[1]", "result": "< 5", "unit": "%"},
      {"measurement": "pIC50", "setting": "[2]", "result": 4.76}
    ]},
    {"smiles": "CCCc1c(OCCCCc2nnnn2C)ccc(C(=O)c2ccccc2OC)c1O", "note": "[Example 33, (2-Hydroxy-4-[4-(1-methyl-1H-tetrazol-5-yl)butoxy]3-propylphenyl)(2-methoxyphenyl)methanone]", "values": [
      {"measurement": "inhibition at 30 µg/mL", "setting": "[1]", "result": 0, "unit": "%"},
      {"measurement": "pIC50", "setting": "[2]", "result": 6.15}
    ]}
  ]
}
